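Exposure lasted 48 hours, with cells grown in 96-well plates and compounds tested at five concentrations. At the GI50, growth is halved. The concentration for full growth arrest is given as TGI.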
Legend:
Assay in all cases: NCI anticancer screen, dose series, 48 h
SK-MEL-5 melanoma = test system: SK-MEL-5 melanoma
HCC-2998 colon = test system: HCC-2998 colon
ACHN renal = test system: ACHN renal
SF-268 CNS = test system: SF-268 CNS
PC-3 prostate = test system: PC-3 prostate
786-0 renal = test system: 786-0 renal
MOLT-4 leukemia = test system: MOLT-4 leukemia
IGROV1 ovarian = test system: IGROV1 ovarian
MALME-3M melanoma = test system: MALME-3M melanoma
K-562 leukemia = test system: K-562 leukemia
HCT-116 colon = test system: HCT-116 colon
SW-620 colon = test system: SW-620 colon
A549 NSCLC = test system: A549 NSCLC
HOP-92 NSCLC = test system: HOP-92 NSCLC
OVCAR-4 ovarian = test system: OVCAR-4 ovarian
SK-MEL-28 melanoma = test system: SK-MEL-28 melanoma
T-47D breast = test system: T-47D breast
HL-60(TB) leukemia = test system: HL-60(TB) leukemia
MDA-MB-435 = test system: MDA-MB-435
SK-MEL-2 melanoma = test system: SK-MEL-2 melanoma
U251 CNS = test system: U251 CNS
OVCAR-5 ovarian = test system: OVCAR-5 ovarian
KM12 colon = test system: KM12 colon
UACC-257 melanoma = test system: UACC-257 melanoma
CCRF-CEM leukemia = test system: CCRF-CEM leukemia
MDA-MB-468 breast = test system: MDA-MB-468 breast
NCI-H522 lung = test system: NCI-H522 lung
HT29 colon = test system: HT29 colon
M14 melanoma = test system: M14 melanoma
LOX IMVI melanoma = test system: LOX IMVI melanoma
NCI-H226 lung = test system: NCI-H226 lung
NCI/ADR-RES ovarian = test system: NCI/ADR-RES ovarian
SR leukemia = test system: SR leukemia
RXF 393 renal = test system: RXF 393 renal
OVCAR-8 ovarian = test system: OVCAR-8 ovarian
SF-295 CNS = test system: SF-295 CNS
CAKI-1 renal = test system: CAKI-1 renal
SN12C renal = test system: SN12C renal
SF-539 CNS = test system: SF-539 CNS
MCF7 breast = test system: MCF7 breast
HS 578T breast = test system: HS 578T breast
NCI-H460 lung = test system: NCI-H460 lung
SNB-19 CNS = test system: SNB-19 CNS
TK-10 renal = test system: TK-10 renal
HOP-62 NSCLC = test system: HOP-62 NSCLC
RPMI-8226 leukemia = test system: RPMI-8226 leukemia
SNB-75 CNS = test system: SNB-75 CNS
A498 renal = test system: A498 renal
EKVX NSCLC = test system: EKVX NSCLC
HCT-15 colon = test system: HCT-15 colon
DU-145 prostate = test system: DU-145 prostate
MDA-MB-231 breast = test system: MDA-MB-231 breast
UACC-62 melanoma = test system: UACC-62 melanoma
SK-OV-3 ovarian = test system: SK-OV-3 ovarian
COLO 205 colon = test system: COLO 205 colon
UO-31 renal = test system: UO-31 renal
BT-549 breast = test system: BT-549 breast
NCI-H23 lung = test system: NCI-H23 lung
OVCAR-3 ovarian = test system: OVCAR-3 ovarian

SMILES: COc1cc2c(c(OC)c1OC)C(=O)CC(c1cccc(NC(=O)c3cc([N+](=O)[O-])ccc3Cl)c1)O2 (stereo not drawn)
- GI50 (SK-MEL-5 melanoma): 8.99 µM
- TGI (SK-MEL-5 melanoma): 73.3 µM
- GI50 (HCC-2998 colon): 13.7 µM
- TGI (HCC-2998 colon): > 100 µM
- GI50 (ACHN renal): 5 µM
- TGI (ACHN renal): 27.8 µM
- GI50 (SF-268 CNS): 6.92 µM
- TGI (SF-268 CNS): > 100 µM
- GI50 (PC-3 prostate): 7.27 µM
- TGI (PC-3 prostate): > 100 µM
- GI50 (786-0 renal): 17.5 µM
- TGI (786-0 renal): > 100 µM
- GI50 (MOLT-4 leukemia): 2.56 µM
- TGI (MOLT-4 leukemia): > 100 µM
- GI50 (IGROV1 ovarian): 11.3 µM
- TGI (IGROV1 ovarian): > 100 µM
- GI50 (MALME-3M melanoma): 18.2 µM
- TGI (MALME-3M melanoma): > 100 µM
- GI50 (K-562 leukemia): 4.42 µM
- TGI (K-562 leukemia): > 100 µM
- GI50 (HCT-116 colon): 1.69 µM
- TGI (HCT-116 colon): 3.64 µM
- GI50 (SW-620 colon): 2.14 µM
- TGI (SW-620 colon): 5.61 µM
- GI50 (A549 NSCLC): 6.66 µM
- TGI (A549 NSCLC): > 100 µM
- GI50 (HOP-92 NSCLC): 2.73 µM
- TGI (HOP-92 NSCLC): 17.8 µM
- GI50 (OVCAR-4 ovarian): 26.6 µM
- TGI (OVCAR-4 ovarian): > 100 µM
- GI50 (SK-MEL-28 melanoma): 15.5 µM
- TGI (SK-MEL-28 melanoma): > 100 µM
- GI50 (T-47D breast): 3.74 µM
- TGI (T-47D breast): 58.7 µM
- GI50 (HL-60(TB) leukemia): 4.91 µM
- TGI (HL-60(TB) leukemia): 57.7 µM
- GI50 (MDA-MB-435): 3.51 µM
- TGI (MDA-MB-435): 24.8 µM
- GI50 (SK-MEL-2 melanoma): 10.8 µM
- TGI (SK-MEL-2 melanoma): 40.1 µM
- GI50 (U251 CNS): 4.32 µM
- TGI (U251 CNS): 25 µM
- GI50 (OVCAR-5 ovarian): 22.4 µM
- TGI (OVCAR-5 ovarian): > 100 µM
- GI50 (KM12 colon): 3.86 µM
- TGI (KM12 colon): 33.8 µM
- GI50 (UACC-257 melanoma): 6.27 µM
- TGI (UACC-257 melanoma): > 100 µM
- GI50 (CCRF-CEM leukemia): 2.44 µM
- TGI (CCRF-CEM leukemia): 7.84 µM
- GI50 (MDA-MB-468 breast): 2.3 µM
- TGI (MDA-MB-468 breast): 5.92 µM
- GI50 (NCI-H522 lung): 3.04 µM
- TGI (NCI-H522 lung): 15.5 µM
- GI50 (HT29 colon): 7.21 µM
- TGI (HT29 colon): > 100 µM
- GI50 (M14 melanoma): 3.17 µM
- TGI (M14 melanoma): 15.9 µM
- GI50 (LOX IMVI melanoma): 1.59 µM
- TGI (LOX IMVI melanoma): 3.56 µM
- GI50 (NCI-H226 lung): 3.37 µM
- TGI (NCI-H226 lung): 17.5 µM
- GI50 (NCI/ADR-RES ovarian): 4.99 µM
- TGI (NCI/ADR-RES ovarian): 29.5 µM
- GI50 (SR leukemia): 2.39 µM
- TGI (SR leukemia): > 100 µM
- GI50 (RXF 393 renal): 4.02 µM
- TGI (RXF 393 renal): 34.4 µM
- GI50 (OVCAR-8 ovarian): 3.47 µM
- TGI (OVCAR-8 ovarian): 20.5 µM
- GI50 (SF-295 CNS): 7.61 µM
- TGI (SF-295 CNS): > 100 µM
- GI50 (CAKI-1 renal): 3.22 µM
- TGI (CAKI-1 renal): > 100 µM
- GI50 (SN12C renal): 2.74 µM
- TGI (SN12C renal): 14.6 µM
- GI50 (SF-539 CNS): 3.54 µM
- TGI (SF-539 CNS): 18.9 µM
- GI50 (MCF7 breast): 2.56 µM
- TGI (MCF7 breast): > 100 µM
- GI50 (HS 578T breast): 3.98 µM
- TGI (HS 578T breast): > 100 µM
- GI50 (NCI-H460 lung): 8.14 µM
- TGI (NCI-H460 lung): 82.9 µM
- GI50 (SNB-19 CNS): 18.6 µM
- TGI (SNB-19 CNS): > 100 µM
- GI50 (TK-10 renal): 33.6 µM
- TGI (TK-10 renal): > 100 µM
- GI50 (HOP-62 NSCLC): 60.9 µM
- TGI (HOP-62 NSCLC): > 100 µM
- GI50 (RPMI-8226 leukemia): 3.14 µM
- TGI (RPMI-8226 leukemia): 38.1 µM
- GI50 (SNB-75 CNS): 2.53 µM
- TGI (SNB-75 CNS): 26.3 µM
- GI50 (A498 renal): 45 µM
- TGI (A498 renal): > 100 µM
- GI50 (EKVX NSCLC): 21.9 µM
- TGI (EKVX NSCLC): > 100 µM
- GI50 (HCT-15 colon): 2.04 µM
- TGI (HCT-15 colon): 6.08 µM
- GI50 (DU-145 prostate): 5.48 µM
- TGI (DU-145 prostate): > 100 µM
- GI50 (MDA-MB-231 breast): 3.96 µM
- TGI (MDA-MB-231 breast): 19.1 µM
- GI50 (UACC-62 melanoma): 4.17 µM
- TGI (UACC-62 melanoma): 45.3 µM
- GI50 (SK-OV-3 ovarian): 38.8 µM
- TGI (SK-OV-3 ovarian): > 100 µM
- GI50 (COLO 205 colon): 5.49 µM
- TGI (COLO 205 colon): 21 µM
- GI50 (UO-31 renal): 4.78 µM
- TGI (UO-31 renal): > 100 µM
- GI50 (BT-549 breast): 2.27 µM
- TGI (BT-549 breast): 16.8 µM
- GI50 (NCI-H23 lung): 5.34 µM
- TGI (NCI-H23 lung): 26.9 µM
- GI50 (OVCAR-3 ovarian): 5.12 µM
- TGI (OVCAR-3 ovarian): > 100 µM

From PubChem BioAssay (NCI)
